Measurements reported in patent US20260053764A1, “COMPOSITION FOR PREVENTING DETERIORATION IN COGNITIVE FUNCTION AND/OR IMPROVING COGNITIVE FUNCTION” (PHARMA FOODS INTERNATIONAL CO., LTD., priority 2020, published 2026).

Tests used:
[1] = system: cognitive function of a human; test: RBANS neuropsychological test in clinical tests A and B; assay type: in vivo; set-up: Attention / Delayed memory / Immediate memory / Language: scale not given here; conditions: for Attention / Immediate memory / Language / Visual spatial configuration / Delayed memory: mean ± SD; for scores regarding delayed playback, GABA group compared to the placebo group / scores regarding visual space, GABA group compared to the placebo group: after twelve weeks of ingestion
Method: In addition, the RBANS neuropsychological test (RBANS: Repeatable Battery for the Assessment of Neuropsychological Status) is one of the neuropsychological examinations that have been standardized the a in United States, which is neuropsychological test exercise (examination battery) that takes a short time (about 30 minutes) and can be repeatedly assessed. The RBANS neuropsychological test can assess five cognitive domains, which are immediate memory, visual spatial/constructional, language, attention and delayed memory.
Two types of placebo-controlled randomized double-blind two-group parallel comparison tests were carried out as clinical tests. […] Specifically, capsules comprising 100 mg of dextrin per capsule were used as the placebo food.
The screening examination was carried out to select 60 subjects for each test (a total of 120 subjects). MMSE (Mini Mental State Examination) is an examination for assessing the degree of progression of dementia or the like based on the score thereof with 30 as the perfect score, wherein dementia is suspected with a score of 23 or lower.
The total of 120 subjects were randomly divided into test A active group, test A placebo group, test B active group and test B placebo group with 30 subjects in each group. Each subject of the test A active group ingested two capsules of the active food, each subject of the test A placebo group ingested two capsules of the placebo food, each subject of the test B active group ingested one capsule of the active food and each subject of the test B placebo group ingested one capsule of the placebo food.
Each subject followed the schedule shown in the table below and ingested one or two of the assigned capsules together with water for 12 weeks from two weeks after the initial screening examination. All subjects had no particular instruction during the ingestion period and freely took their meals.
As shown with ● in the test schedule in Table 1, Cognitrax was carried out a total of five times, which are upon screening, before starting test food sample ingestion, after four weeks of ingestion, after eight weeks of ingestion and after twelve weeks of ingestion, and the RBANS neuropsychological test was carried out a total of two times, which are before staring test food ingestion and after twelve weeks of ingestion.

[2] = system: IGF-1 (insulin-like growth factor-1); test: Blood test, IGF-1 concentration in blood; assay type: in vivo, human; conditions: 200 mg ingestion test
Text: While there are still many unclear points regarding the biochemical mechanism regarding reduction in cognitive function, the IGF-1 (insulin-like growth factor-1) level in blood is known to be reduced by aging. […] In one embodiment of the present disclosure, the composition of the present disclosure can be a composition for suppressing reduction in cognitive function and/or improving the cognitive function through elevation of the IGF-1 concentration in blood.
Among the 120 subjects in Example 1, a total of six blood tests were carried out to the total of 60 subjects who participated in test, wherein blood tests were carried out upon screening, before starting test food ingestion, after four weeks of ingestion, after eight weeks of ingestion, after twelve weeks of ingestion and four weeks after ending ingestion, as shown with ● in the test schedule in Table 1.

[3] = test A 200 mg, before ingestion
[4] = test B 100 mg, before ingestion

Compound: NCCCC(=O)O [GABA, γ-aminobutyric acid]
- Delayed memory: difference between active food and placebo food groups ([1]; test A 200 mg, 12 w): 9.4
- Immediate memory: difference between active food and placebo food groups ([1]; test A 200 mg, 12 w): 13.1
- Language: difference between active food and placebo food groups ([1]; test A 200 mg, 12 w): 5.0
- RBANS domain (row head blank): difference between active food and placebo food groups ([1]; test A 200 mg, 12 w): 5.6
- Visual space: difference between active food and placebo food groups ([1]; test A 200 mg, 12 w): 3.1
- Attention ([1]; test A 200 mg, 12 w): 53.0 ± 15.2
- Immediate memory ([1]; test A 200 mg, 12 w): 47.6 ± 14.7
- Language ([1]; test A 200 mg, 12 w): 54.2 ± 9.5
- Visual spatial configuration ([1]; test A 200 mg, 12 w): 48.8 ± 13.0
- Delayed memory: difference between active food and placebo food groups [1, 3]: −1.6
- Immediate memory: difference between active food and placebo food groups [1, 3]: 0.8
- Language: difference between active food and placebo food groups [1, 3]: 2.3
- RBANS domain (row head blank): difference between active food and placebo food groups [1, 3]: −0.8
- Visual space: difference between active food and placebo food groups [1, 3]: −0.2
- Attention [1, 3]: 44.5 ± 17.6
- Delayed memory [1, 3]: 39.8 ± 17.1
- Immediate memory [1, 3]: 42.3 ± 16.6
- Language [1, 3]: 48.4 ± 8.5
- Visual spatial configuration [1, 3]: 47.7 ± 14.7
- scores regarding delayed playback, GABA group compared to the placebo group ([1]; test A): significant improvement
- scores regarding visual space, GABA group compared to the placebo group ([1]; test A): significant improvement
- Attention: difference between active food and placebo food groups ([1]; test B 100 mg, 12 w): −2.2
- Delayed memory: difference between active food and placebo food groups ([1]; test B 100 mg, 12 w): 11.9
- Immediate memory: difference between active food and placebo food groups ([1]; test B 100 mg, 12 w): 3.5
- Language: difference between active food and placebo food groups ([1]; test B 100 mg, 12 w): 3.9
- Visual space: difference between active food and placebo food groups ([1]; test B 100 mg, 12 w): 9.9
- Delayed memory ([1]; test B 100 mg, 12 w): 46.9 ± 11.3
- Immediate memory ([1]; test B 100 mg, 12 w): 43.9 ± 14.4
- Language ([1]; test B 100 mg, 12 w): 51.6 ± 8.7
- Visual spatial configuration ([1]; test B 100 mg, 12 w): 48.2 ± 10.3
- Attention: difference between active food and placebo food groups [1, 4]: −5.5
- Delayed memory: difference between active food and placebo food groups [1, 4]: 1.2
- Immediate memory: difference between active food and placebo food groups [1, 4]: −0.9
- Language: difference between active food and placebo food groups [1, 4]: −2.1
- Visual space: difference between active food and placebo food groups [1, 4]: 1.0
- Attention [1, 4]: 43.4 ± 11.6
- Delayed memory [1, 4]: 41.7 ± 15.3
- Immediate memory [1, 4]: 42.8 ± 13.4
- Language [1, 4]: 47.8 ± 11.6
- Visual spatial configuration [1, 4]: 48.3 ± 8.8
- scores regarding delayed playback, GABA group compared to the placebo group ([1]; test B): significant improvement
- scores regarding visual space, GABA group compared to the placebo group ([1]; test B): significant improvement
- IGF-1 ([2]; blood, before ingestion, mean ± SD): 71.0 ± 21.5 ng/mL
- IGF-1 in the group that ingested GABA ([2]; vs. before ingestion): tendency of increase
